According to article PMC4821887, “Identification of chemicals that mimic transcriptional changes associated with autism, brain aging and neurodegeneration” (Nature Communications, 2016):

Test system: mouse cortical cultures
Assay: RNA-seq differential expression (DESeq) against matched vehicle
Type: cell-based
Parameters: key to MeanFenamidone Bcl11b / MeanFenamidone Slc12a4 / MeanFenamidone Abca1 / MeanFenamidone Hmox1 / MeanFenamidone Il1rap / MeanFenamidone Cyba / MeanFenamidone Narf / MeanFenamidone Bnip3 / MeanFenamidone Amotl2 / MeanFenamidone Gad2 / MeanFenamidone Vsnl1 / MeanFenamidone Fam178a: DESeq mean of counts over RefSeq exons
Conditions: for MeanFenamidone (DESeq mean normalized counts): Fenamidone, vs matched vehicle
Description: Figure 4 Cluster 2 chemicals alter expression of a common set of genes. […] RNA-seq was performed in quadruplicate after treating cortical cultures with fenamidone (10 μM) or pyraclostrobin (0.1 μM) for 24 h (n=3 biological replicates) and compared with matched vehicle controls using DESeq to detect differentially expressed genes, listed in Supplementary Data 4.
Cultures were treated with the non-cytotoxic dose of each chemical, by exchanging half of the original medium with chemicals at 2 × concentration in prewarmed feeding medium, on DIV 7 for 24 h in 12-well plates at a density of 5 × 10^5 cells per well. RNA was isolated using RNeasy plus mini kit (Cat. #74134, Qiagen). […]. Samples were further assessed for quality using either an Agilent Bioanalyzer 2100 or TapeStation 2200 to obtain a RIN. RIN values exceeding 7 were used for sequencing. RNA samples were used to generate and barcode complementary DNA libraries using the TruSeq RNA Library Preparation Kit at the UNC High Throughput Sequencing Facility. Pools of 24 multiplexed samples were sequenced per lane on an Illumina HiSeq 2500 using 50-bp paired-end reads.
RNA-seq reads were filtered using TagDust and aligned to the reference mouse genome (mm9) with TopHat using default parameters. Reads aligning to ribosomal RNA genes were removed. Transcript abundance was estimated by computing Reads per kilobase per million mapped reads (RPKM) using RefSeq gene models aggregated by gene symbol. For differential expression analyses, raw counts over RefSeq exons were used, and then were compared across samples using DESeq[62].

In the case of `CSC1=N[C@@](C)(c2ccccc2)C(=O)N1Nc1ccccc1` [fenamidone], the log2FoldChange (gene Prss23) is reported as 2.578, the “MeanFenamidone Ptpn14” value (gene Ptpn14, DESeq mean, 4 reps) is reported as 536.253 and the “log2FoldChange Ptpn14” value (gene Ptpn14, vs vehicle, 4 reps) is reported as 2.06. The MeanFenamidone (gene Ptpro) was 128.9, the log2FoldChange (gene Ptpro) was -1.349 and the MeanFenamidone (gene Rab6b) was 1528.43. For the same compound, the log2FoldChange (gene Rab6b) was -1.231, the “MeanFenamidone Rian” value (gene Rian, DESeq mean, 4 reps) was 479.419 and the “log2FoldChange Rian” value (gene Rian, vs vehicle, 4 reps) was -1.772. For the same compound, the “MeanFenamidone Rimkla” value (gene Rimkla, DESeq mean, 4 reps) was 54.5497, the “log2FoldChange Rimkla” value (gene Rimkla, vs vehicle, 4 reps) was -1.586 and the “MeanFenamidone Rph3a” value (gene Rph3a, DESeq mean, 4 reps) was 62.2069. For the same compound, the “log2FoldChange Rph3a” value (gene Rph3a, vs vehicle, 4 reps) was -2.0001, the MeanFenamidone (gene Rsu1) was 240.928 and the log2FoldChange (gene Rsu1) was 1.174. The “MeanFenamidone Samd4” value (gene Samd4, DESeq mean, 4 reps) was 336.652, the “log2FoldChange Samd4” value (gene Samd4, vs vehicle, 4 reps) was 1.621 and the “MeanFenamidone Scn2a1” value (gene Scn2a1, DESeq mean, 4 reps) was 402.156. For the same compound, the “log2FoldChange Scn2a1” value (gene Scn2a1, vs vehicle, 4 reps) was -1.491, the “MeanFenamidone Sdc1” value (gene Sdc1, DESeq mean, 4 reps) was 327.963 and the “log2FoldChange Sdc1” value (gene Sdc1, vs vehicle, 4 reps) was 1.6746. For the same compound, the MeanFenamidone (gene Sdc3) was 1856.44, the log2FoldChange (gene Sdc3) was -1.095 and the “MeanFenamidone Serpine2” value (gene Serpine2, DESeq mean, 4 reps) was 777.193. The “log2FoldChange Serpine2” value (gene Serpine2, vs vehicle, 4 reps) was 1.421, the “MeanFenamidone (DESeq mean normalized counts)” value (gene Serpinf1, 4 reps) was 51.7434 and the “MeanFenamidone Serpini1” value (gene Serpini1, DESeq mean, 4 reps) was 255.176. The “log2FoldChange Serpini1” value (gene Serpini1, vs vehicle, 4 reps) was -1.567, the MeanFenamidone (gene Sgpl1) was 504.223 and the log2FoldChange (gene Sgpl1) was 1.381. The “MeanFenamidone Shank1” value (gene Shank1, DESeq mean, 4 reps) was 288.972, the “log2FoldChange Shank1” value (gene Shank1, vs vehicle, 4 reps) was -1.584 and the MeanFenamidone (gene Shmt2) was 164.927. For the same compound, the log2FoldChange (gene Shmt2) was 1.37, the “MeanFenamidone Slc3a2” value (gene Slc3a2, DESeq mean, 4 reps) was 1206 and the “log2FoldChange Slc3a2” value (gene Slc3a2, vs vehicle, 4 reps) was 1.496. The MeanFenamidone (gene Slc4a2) was 227.842, the log2FoldChange (gene Slc4a2) was 1.898 and the “MeanFenamidone Slc5a3” value (gene Slc5a3, DESeq mean, 4 reps) was 905.314. The “log2FoldChange Slc5a3” value (gene Slc5a3, vs vehicle, 4 reps) was 1.342, the “MeanFenamidone Slc8a3” value (gene Slc8a3, DESeq mean, 4 reps) was 22.3077 and the “log2FoldChange Slc8a3” value (gene Slc8a3, vs vehicle, 4 reps) was -2.167. For the same compound, the “MeanFenamidone Slc12a4” value (gene Slc12a4, DESeq mean, 4 reps) was 353.466, the “log2FoldChange Slc12a4” value (gene Slc12a4, vs vehicle, 4 reps) was 2.575 and the “MeanFenamidone Slc12a5” value (gene Slc12a5, DESeq mean, 4 reps) was 198.315. For the same compound, the “log2FoldChange Slc12a5” value (gene Slc12a5, vs vehicle, 4 reps) was -1.614, the MeanFenamidone (gene Slc12a7) was 123.511 and the log2FoldChange (gene Slc12a7) was 2.012. The “MeanFenamidone Slc32a1” value (gene Slc32a1, DESeq mean, 4 reps) was 76.5704, the “log2FoldChange Slc32a1” value (gene Slc32a1, vs vehicle, 4 reps) was -1.6789 and the MeanFenamidone (gene Slit2) was 473.475. The log2FoldChange (gene Slit2) was 1.336, the MeanFenamidone (gene Slitrk3) was 59.0221 and the log2FoldChange (gene Slitrk3) was -1.399. For the same compound, the “MeanFenamidone Smpd3” value (gene Smpd3, DESeq mean, 4 reps) was 450.951, the “log2FoldChange Smpd3” value (gene Smpd3, vs vehicle, 4 reps) was -1.523 and the MeanFenamidone (gene Snap91) was 577.837. The log2FoldChange (gene Snap91) was -1.2276, the “MeanFenamidone Snx33” value (gene Snx33, DESeq mean, 4 reps) was 193.085 and the “log2FoldChange Snx33” value (gene Snx33, vs vehicle, 4 reps) was 2.21. The MeanFenamidone (gene Sorl1) was 374.526, the log2FoldChange (gene Sorl1) was 1.703 and the “MeanFenamidone Spock3” value (gene Spock3, DESeq mean, 4 reps) was 49.3806. For the same compound, the “log2FoldChange Spock3” value (gene Spock3, vs vehicle, 4 reps) was -2.6448, the “MeanFenamidone Sprn” value (gene Sprn, DESeq mean, 4 reps) was 108.373 and the “log2FoldChange Sprn” value (gene Sprn, vs vehicle, 4 reps) was -1.675. For the same compound, the “MeanFenamidone Srxn1” value (gene Srxn1, DESeq mean, 4 reps) was 1016.41, the “log2FoldChange Srxn1” value (gene Srxn1, vs vehicle, 4 reps) was 2.241 and the MeanFenamidone (gene Ssc5d) was 60.5262. The log2FoldChange (gene Ssc5d) was 1.812, the “MeanFenamidone Ssfa2” value (gene Ssfa2, DESeq mean, 4 reps) was 339.098 and the “log2FoldChange Ssfa2” value (gene Ssfa2, vs vehicle, 4 reps) was 1.684. The MeanFenamidone (gene St8sia1) was 138.691, the log2FoldChange (gene St8sia1) was -1.185 and the “MeanFenamidone St8sia3” value (gene St8sia3, DESeq mean, 4 reps) was 218.799. For the same compound, the “log2FoldChange St8sia3” value (gene St8sia3, vs vehicle, 4 reps) was -1.589, the MeanFenamidone (gene St8sia4) was 83.2874 and the log2FoldChange (gene St8sia4) was -1.239. The MeanFenamidone (gene Sult4a1) was 337.631, the log2FoldChange (gene Sult4a1) was -1.1579 and the “MeanFenamidone Sv2b” value (gene Sv2b, DESeq mean, 4 reps) was 206.444. The “log2FoldChange Sv2b” value (gene Sv2b, vs vehicle, 4 reps) was -1.8053, the “MeanFenamidone (DESeq mean normalized counts)” value (gene Svil, 4 reps) was 63.1892 and the “MeanFenamidone Syn2” value (gene Syn2, DESeq mean, 4 reps) was 290.905. The “log2FoldChange Syn2” value (gene Syn2, vs vehicle, 4 reps) was -1.354, the “MeanFenamidone Syp” value (gene Syp, DESeq mean, 4 reps) was 891.603 and the “log2FoldChange Syp” value (gene Syp, vs vehicle, 4 reps) was -1.4647. The “MeanFenamidone Syt1” value (gene Syt1, DESeq mean, 4 reps) was 825.321, the “log2FoldChange Syt1” value (gene Syt1, vs vehicle, 4 reps) was -1.819 and the “MeanFenamidone Tagln” value (gene Tagln, DESeq mean, 4 reps) was 2032.34. The “log2FoldChange Tagln” value (gene Tagln, vs vehicle, 4 reps) was 3.012, the “MeanFenamidone Tead1” value (gene Tead1, DESeq mean, 4 reps) was 925.254 and the “log2FoldChange Tead1” value (gene Tead1, vs vehicle, 4 reps) was 2.035. The “MeanFenamidone Tgfb2” value (gene Tgfb2, DESeq mean, 4 reps) was 420.529, the “log2FoldChange Tgfb2” value (gene Tgfb2, vs vehicle, 4 reps) was 1.82 and the “MeanFenamidone Tgfb3” value (gene Tgfb3, DESeq mean, 4 reps) was 398.538. The “log2FoldChange Tgfb3” value (gene Tgfb3, vs vehicle, 4 reps) was 2.304, the “MeanFenamidone Thbs1” value (gene Thbs1, DESeq mean, 4 reps) was 3138.32 and the “log2FoldChange Thbs1” value (gene Thbs1, vs vehicle, 4 reps) was 2.61. For the same compound, the “MeanFenamidone Tln1” value (gene Tln1, DESeq mean, 4 reps) was 658.354, the “log2FoldChange Tln1” value (gene Tln1, vs vehicle, 4 reps) was 2.579 and the “MeanFenamidone Tmbim1” value (gene Tmbim1, DESeq mean, 4 reps) was 170.347. For the same compound, the “log2FoldChange Tmbim1” value (gene Tmbim1, vs vehicle, 4 reps) was 2.378, the MeanFenamidone (gene Tmem181b-ps) was 77.9777 and the log2FoldChange (gene Tmem181b-ps) was -1.325. The MeanFenamidone (gene Tmem229b) was 256.203, the log2FoldChange (gene Tmem229b) was -1.123 and the “MeanFenamidone Tnc” value (gene Tnc, DESeq mean, 4 reps) was 998.798. For the same compound, the “log2FoldChange Tnc” value (gene Tnc, vs vehicle, 4 reps) was 2.934, the “MeanFenamidone Tnfrsf10b” value (gene Tnfrsf10b, DESeq mean, 4 reps) was 126.269 and the “log2FoldChange Tnfrsf10b” value (gene Tnfrsf10b, vs vehicle, 4 reps) was 2.1709. The “MeanFenamidone Tnfrsf12a” value (gene Tnfrsf12a, DESeq mean, 4 reps) was 307.752, the “log2FoldChange Tnfrsf12a” value (gene Tnfrsf12a, vs vehicle, 4 reps) was 3.087 and the MeanFenamidone (gene Tns1) was 238.258. The log2FoldChange (gene Tns1) was 2.58, the “MeanFenamidone Tpm4” value (gene Tpm4, DESeq mean, 4 reps) was 930.727 and the “log2FoldChange Tpm4” value (gene Tpm4, vs vehicle, 4 reps) was 1.809. For the same compound, the “MeanFenamidone Tpp1” value (gene Tpp1, DESeq mean, 4 reps) was 440.575, the “log2FoldChange Tpp1” value (gene Tpp1, vs vehicle, 4 reps) was 1.842 and the MeanFenamidone (gene Tro) was 343.733. For the same compound, the log2FoldChange (gene Tro) was -1.218, the MeanFenamidone (gene Tspyl4) was 870.895 and the log2FoldChange (gene Tspyl4) was -1.118. For the same compound, the “MeanFenamidone Tuba4a” value (gene Tuba4a, DESeq mean, 4 reps) was 131.218, the “log2FoldChange Tuba4a” value (gene Tuba4a, vs vehicle, 4 reps) was -1.604 and the “MeanFenamidone Tubb6” value (gene Tubb6, DESeq mean, 4 reps) was 522.566. For the same compound, the “log2FoldChange Tubb6” value (gene Tubb6, vs vehicle, 4 reps) was 2.127, the “MeanFenamidone Tuft1” value (gene Tuft1, DESeq mean, 4 reps) was 71.0226 and the “log2FoldChange Tuft1” value (gene Tuft1, vs vehicle, 4 reps) was 2.58. For the same compound, the “MeanFenamidone Txnrd1” value (gene Txnrd1, DESeq mean, 4 reps) was 1365.85, the “log2FoldChange Txnrd1” value (gene Txnrd1, vs vehicle, 4 reps) was 1.713 and the “MeanFenamidone Uap1l1” value (gene Uap1l1, DESeq mean, 4 reps) was 115.372. The “log2FoldChange Uap1l1” value (gene Uap1l1, vs vehicle, 4 reps) was 2.463, the MeanFenamidone (gene Vash1) was 501.714 and the log2FoldChange (gene Vash1) was -1.142. The “MeanFenamidone Vasn” value (gene Vasn, DESeq mean, 4 reps) was 270.313, the “log2FoldChange Vasn” value (gene Vasn, vs vehicle, 4 reps) was 2.194 and the “MeanFenamidone Vcl” value (gene Vcl, DESeq mean, 4 reps) was 498.388. The “log2FoldChange Vcl” value (gene Vcl, vs vehicle, 4 reps) was 2.095, the “MeanFenamidone Vgll3” value (gene Vgll3, DESeq mean, 4 reps) was 231.289 and the “log2FoldChange Vgll3” value (gene Vgll3, vs vehicle, 4 reps) was 2.348. The MeanFenamidone (gene Vim) was 6511.9, the log2FoldChange (gene Vim) was 1.994 and the “MeanFenamidone Vsnl1” value (gene Vsnl1, DESeq mean, 4 reps) was 216.784. For the same compound, the “log2FoldChange Vsnl1” value (gene Vsnl1, vs vehicle, 4 reps) was -1.6854, the “MeanFenamidone Wls” value (gene Wls, DESeq mean, 4 reps) was 676.758 and the “log2FoldChange Wls” value (gene Wls, vs vehicle, 4 reps) was 1.397. The “MeanFenamidone Wnk1” value (gene Wnk1, DESeq mean, 4 reps) was 1955.12, the “log2FoldChange Wnk1” value (gene Wnk1, vs vehicle, 4 reps) was 1.378 and the “MeanFenamidone Xkr4” value (gene Xkr4, DESeq mean, 4 reps) was 97.5483. The “log2FoldChange Xkr4” value (gene Xkr4, vs vehicle, 4 reps) was -1.595, the MeanFenamidone (gene Zak) was 216.098 and the log2FoldChange (gene Zak) was 1.697. For the same compound, the MeanFenamidone (gene Zbtb7b) was 137.122, the log2FoldChange (gene Zbtb7b) was 2.108 and the “MeanFenamidone Zfp36l2” value (gene Zfp36l2, DESeq mean, 4 reps) was 339.831. For the same compound, the “log2FoldChange Zfp36l2” value (gene Zfp36l2, vs vehicle, 4 reps) was 2.067.
